Laboratory results as given in publication PMC9731497, “Identification of potent anti-Cryptosporidium new drug leads by screening traditional Chinese medicines” (PLOS Neglected Tropical Diseases, 2022).
Several values for one entry are separate records, joined by “and”; a condition that tells them apart may be missing. Equal entries are not always repeated. Where two headings read alike, the source gives them in different places.

Key:
[1] = initial dose-finding doses, 11 consecutive days (S1 Fig)
Protocol: The growth inhibitory effect of the hit compounds was assessed in a mouse model infected with C. parvum oocysts. In this experiment, four-week-old female SCID mice (Charles River Laboratories, Shizuoka, Japan) were used. In the infected groups, mice were orally inoculated with 1.0 × 10^5 C. parvum oocysts by using sterile gavage needles. Initially, four compounds were tested at different concentrations to figure out the optimum dosages. Six groups of mice were given oral dosages of 50, 25, and 12.5 mg/kg body weight (BW) of two compounds (alisol-A and alisol-B). […] Bufotalin was given orally at three different doses to the other mouse group: 0.1, 0.05, and 0.025 mg/kg BW. […] The positive control group consisted of infected and untreated mice, whereas the negative control group consisted of noninfected and untreated mice. Treatment began on the third day after infection and lasted until the thirteenth day. The body weight and condition were checked every day, and treatment was given based on the body weight. On days 1, 3, 6, 7, 9, 12, 14, fecal samples were taken. The total number of oocysts per gram was calculated after counting the oocysts in the feces using the sugar flotation method. The treated and untreated mice were euthanized by cervical dislocation on day 14, and a thorough necropsy was performed.

[2] = Liver histology (sub-effects of drugs, hepatocellular damage) in treated mice; type: in vivo, SCID mice
Protocol: (§1) We performed a histopathological analysis to evaluate the growth inhibitory effects and toxicity of the hit compounds in C. parvum-infected mice. In brief, ileum was collected, fixed in 10% neutral buffered formalin, and paraffin-embedded. Each section was cut to a thickness of 4 μm for hematoxylin and eosin (HE) staining and immunohistochemistry. Immunohistochemistry (IHC) was performed following standard techniques using the Envision+ system (Agilent Technologies, Inc., Santa Clara, CA) and 3,3-diaminobenzidine (DAB)(Dojindo, Kumamoto, Japan). Anti-Toxoplasma gondii (RH strain) rabbit polyclonal IgG (Abcam, Cambridge, UK) was used as the primary antibody. The antibody cross reacts with C. Parvum. To reduce the endogenous peroxidase activity, the sections were incubated with 3% H2O2 for 5 minutes. Sections were incubated with primary antibodies overnight at 4°C. After washing with PBS with Tween 20 (PBST), sections were incubated with Envision+ single polymer solution (Agilent Technologies Inc.) for 30 minutes at room temperature. Sections were counterstained with Mayer’s hematoxylin. The severity of C. parvum infection was evaluated in the most severe area, and scored from—to 3+ (-, no oocysts; 1+, mild focal infection; 2+, moderate multifocal infection; 3+, severe diffuse infection). Sub-effects of drugs (hepatocellular damage) were evaluated for major histological changes in karyomegaly, hepatocellular hypertrophy, and interstitial fibrosis/inflammation. We also checked the organs (liver, heart, lung, kidney, and intestines) alteration at necropsy whether it has abnormal or normal.

HCT-8 cells = assay: Host cell viability assay (Cell-Titer Glo); conditions: HCT-8 cells, 48 h, 1 μM
Protocol: (§2) HCT-8 cells (4 × 10^4 cells/well) 100 μl were seeded in 96-well plates, cultured for 24 h, and then treated for 48 h with different concentrations of hit compounds (10^1, 1, 10^−1, 10^−2, 10^−3, 10^−4 μM). After a 48-h incubation period, equilibrate the 96-well plates in room temperature (RT) for 30 minutes. Then, equal volume of Cell-Titer Glo (Promega) reagent was added to each treated well, the plate was shaken on an orbital shaker for 2 minutes then incubated for 10 minutes at RT. The luminescence was quantified by the GloMax Navigator plate reader (Promega, Japan) and the cell viability was evaluated as directed by the kit manufacturer. The luminescence signal of control wells containing DMSO was set to 100% cell viability. […] Graph Pad Prism 7.0.1 was used to determine CC50 values.

[3] = Host cell viability assay (Cell-Titer Glo); conditions: human
Protocol: as §2

C. parvum = assay: Histopathological analysis and immunohistochemistry of ileum of C. parvum-infected mice; type: in vivo, Cryptosporidium parvum; design: key to severity of C. parvum infection in ileum, Score: -, no oocysts; 1+, mild focal infection; 2+, moderate multifocal infection; 3+, severe diffuse infection; conditions: HE and immunohistochemistry, most severe area, day 14, dose not stated
Protocol: as §1

C. parvum HNJ-1 strain [4] = assay: In vivo C. parvum growth inhibition assay (oocyst shedding in feces of infected SCID mice, sugar flotation); design: species or system Cryptosporidium parvum; conditions: 11 days; for No. of oocysts, Mean: SCID mice n=3, mean of days 3, 6, 7, 9, 12, 14; for % reduction in oocyst shedding: SCID mice n=3, vs untreated infected control
C. parvum HNJ-1 strain [5] = assay: In vitro C. parvum growth inhibition assay (Sporo-Glo staining, fluorescence microscopy count in infected HCT-8 cells); type: cell-based, Cryptosporidium parvum; conditions: for EC50: read-out: EC50 value
Protocol: The primary screening of compounds for C. parvum was performed as follows: HCT-8 cells were seeded in 96-well plates at a density of 2 × 10^4 cells/well and allowed to grow overnight. Before infecting cells, Cryptosporidium oocysts were excysted to sporozoites. 87 compounds were tested against C. parvum at a single concentration of 1 μM. Each compound was tested once. Infected HCT-8 cells and uninfected HCT-8 cells were used as positive and negative controls, respectively, in medium containing 0.1% DMSO. Nitazoxanide was used as a standard comparative drug. In vitro inhibition assays were carried out as previously described. Briefly, oocysts were suspended in 1 ml of 0.1% sodium hypochlorite in PBS, incubated for 5 min at 4°C, centrifuged for 10 min at 3000 rpm, and washed three times in PBS. The oocysts were then suspended in excystation solution consisting of 0.75% sodium taurocholate and 0.25% trypsin dissolved in 0.1 M phosphate buffer (with 93.4 mM K2HPO4 and 6.5 mM KH2PO4; pH 8.0) and incubated at 37°C for 1 h. The oocyst/sporozoite suspensions were then rinsed in 1 x PBS (with 137 mM NaCl, 2.7 mM KCl, 8 mM Na2HPO4, and 2 mM KH2PO4; pH 7.5) once more before being filtered through a 5-μm pore-size PVDF filter (Millipore, Burlington, MA, USA) with 5 ml syringe to remove the oocyst wall. HCT-8 cells were seeded in 96-well plates (Thermo Fisher Scientific Inc., MA, USA) and incubated overnight. The cells were then infected with C. parvum sporozoites (4 ×10^4 sporozoites/well) containing in RPMI-1640 medium for 3 h. After 3h inoculation, the non-infected parasite or debris were washed with new RPMI-1640 media. At this point, in RPMI-1640 medium containing 1 μM library compounds were added. Infected cells were incubated for an additional 45 h. Following incubation, the infected cells were fixed for 10 minutes in ice-cold 100% methanol at room temperature. Plates were then carefully rinsed 3 times with PBS. The parasite infected cells were then blocked with 1% bovine serum albumin (BSA) in PBS for 30 minutes and then stained with Sporo-Glo (an anti-Cryptosporidium polyclonal antibody) (Waterborne Environmental, Inc., VA, USA) protected from light for 1 h at room temperature. Finally, cells were washed twice with 1 x PBS-T (1 x PBS supplemented with 0.01% Tween). A Keyence BZ-II 9000 was used to capture the images (KEYENCE, Osaka, Japan). The plates were imaged with a HS all-in-one fluorescence microscope using a 20 x objective. The image output was imported into Microsoft excel for data organization and analyses. All C. parvum parasite in the well were counted.
For a second investigation, four selective hit compounds were used to determine the half-maximum inhibitory concentration (EC50). The parasites were treated with various doses of compounds (ranging from 0.008–1 μM). HCT-8 cells (2 × 10^4 cells/well) were grown for 24 h before being infected with 4 × 10^4 C. parvum sporozoites in 96-well plates. […] Sporo-Glo was used for C. parvum staining as described above. Fluorescence microscopy with a Keyence BZ-II 9000 imager was used to count all Cryptosporidium in the wells (KEYENCE, Osaka, Japan). EC50 vales were determined by analyzing dose-response curves made by GraphPad Prism (GraphPad Software, CA, USA).

Cryptosporidium parvum = conditions: cited from earlier work
[6] = initial dose-finding (S1 Table), 0.1 mg/kg BW, 1 mouse

CC(=O)O[C@H]1C[C@]2(O)[C@@H]3CC[C@@H]4C[C@@H](O)CC[C@]4(C)[C@H]3CC[C@]2(C)[C@H]1c1ccc(=O)oc1 [Bufotalin]
body weight of treated infected mice [1]: not significant
histological findings in liver ([2]; HE stain, infected treated mice (S3 Fig)): inflammation and hepatocellular hypertrophy
Host cell viability (%) (HCT-8 cells): 95.1%
CC50 at 48 h [3]: 10.9 µM
viability at 48 h, 1 µM ([3]; Host cell viability (%), HCT-8 cells, 48 h, 1 μM): > 95%
severity of C. parvum infection in ileum, Score (C. parvum): 1+
No. of oocysts, Mean (C. parvum HNJ-1 strain [4]; 0.025 mg/kg BW oral): 92.3
% reduction in oocyst shedding (C. parvum HNJ-1 strain [4]; 0.025 mg/kg BW oral): 58.2%
No. of oocysts, Mean (C. parvum HNJ-1 strain [4]; 0.05 mg/kg BW oral): 86.6
% reduction in oocyst shedding (C. parvum HNJ-1 strain [4]; 0.05 mg/kg BW oral): 60.8%
No. of oocysts, Mean (C. parvum HNJ-1 strain [4]; 0.1 mg/kg BW oral): 48.5
% reduction in oocyst shedding (C. parvum HNJ-1 strain [4]; 0.1 mg/kg BW oral): 78.1%
% of oocysts shedding (C. parvum HNJ-1 strain [4]; [6]): 28.8%
% reduction in oocysts shedding (C. parvum HNJ-1 strain [4]; [6]): 71.2%
EC50 (C. parvum HNJ-1 strain [5]; Cryptosporidium parvum, HCT-8, 45 h): 0.0634 ± 0.0187 µM
inhibition at 1 µM (C. parvum HNJ-1 strain [5]; Cryptosporidium parvum, HCT-8, 45 h, read-out: Parasite inhibition (%)): 82.9%
Selectivity index (C. parvum HNJ-1 strain [5]; ratio of CC50 (HCT-8) / EC50 (C. parvum)): 172.3

CC(=O)Oc1ccccc1C(=O)Nc1ncc([N+](=O)[O-])s1 [Nitazoxanide]
IC50 (Cryptosporidium parvum; ref 30 (Bessoff et al., 2013), read-out: IC50 against Cryptosporidium parvum): ~3.7 µM and 3.7 µM
EC50 (Cryptosporidium parvum; ref PMID: 22167242, PMID: 29341586, PMID: 30297368, read-out: range of EC50 value): 1.55 to 5.1 µM
histological findings in liver ([2]; mouse, in vivo): karyomegaly and hepatocellular hypertrophy
severity of C. parvum infection in ileum, Score (C. parvum): 2+
No. of oocysts, Mean (C. parvum HNJ-1 strain [4]; 100 mg/kg BW oral): 81.1
EC50 (C. parvum HNJ-1 strain [5]; Cryptosporidium parvum, HCT-8, C. parvum, dose-dependent curve of comparative drug (response to reviewers)): 4.14 ± 0.54 µM
